Columns and labels:
NCI-H358 = assay: Cell proliferation assay (CellTiterGlo), NCI-H358; format: cell-based; conditions: Homo sapiens, NCI-H358, 72 hours
Method: (§1) A cell proliferation assay was used to evaluate inhibition by exemplary compounds. Proliferation assays used human tissue derived cancer cell lines, for example, AsPC-1 (Cobioer, CBP60546), GP2D (Cobioer, CBP60683), NCI-H358 (Cobioer, CBP60544), NCI-H727 (Cobioer, CBP60182), MKN-1 (Cobioer, CBP60486), HCT116 (ATCC, CCL-247), and HT-29 (Cobioer, CBP60011). Signal reflecting cell proliferation was detected with the CellTiterGlo kit (Promega, G7573).
(§2) Cells were cultured in the growth phase and 3×10^3 cells per well were plated in a 96-well plate (Greiner, 655090). Cells were incubated 24 hours at 37° C. and 5% carbon dioxide in a humidity chamber. Serially diluted exemplary compounds were added to the plate which was then incubated for another 72 hours. Plates were brought to room temperature and an equal volume of CellTiterGlo reagent was added. After 10 minutes incubation at room temperature to stabilize the signal, the luminescent signal was measured on the VICTOR Nivo multimode plate reader according to the manufacturer's instructions. The signal was converted to percent inhibition using the following formula: […]
(§3) (where the “Maximum Signal” are wells containing DMSO without inhibitor; the “Minimum Signal” are signal of wells recorded at Day 0 prior to commencement of the experiment; the “Test compound signal” are wells containing inhibitor at established concentrations).
(§4) IC50 was determined by fitting percent inhibition at each inhibitor concentration to the four-parameter nonlinear logistic equation using GraphPad Prism. IC50 (nM) values of selected compounds are depicted in Table 4. “-”: means without measuring; and “ND” means not detected.

[1] = target: His-tagged Human KRAS^G12D (Homo sapiens (Human), UniProt P01116, G12D); assay: HTRF KRAS G12D GTP binding assay; conditions: displacement of GTP-Red tracer
Method: KRAS^G12D was used in this assay.
The ability of a test compound to bind to KRAS^G12D was measured by using an HTRF KRAS^G12D GTP Binding Kit (Cisbio, 63ADK000CB27PEG). […] 5 μL of compound solution was added to each well after serial dilution, followed by addition of 5 μL of GDP (50 nM) solution. After 30 minutes incubation at room temperature, 1×6His Eu cryptate antibody solution and GTP-Red tracer were added to the plate, then incubated for another 30 minutes. The HTRF signal was measured with a VICTOR Nivo multimode plate reader according to the manufacturer's instructions. The percent inhibition was calculated using the following formula: […]
(where the “Maximum Signal” are wells containing DMSO without inhibitor; the “Minimum Signal” are wells containing reference inhibitory component (GDP); the “Test compound signal” are wells containing test compound (inhibitor) at established concentrations).
IC50 was determined by fitting percent inhibition at each inhibitor concentration to the four-parameter nonlinear logistic equation using GraphPad Prism.

GP2D = assay: Cell proliferation assay (CellTiterGlo), GP2D; format: cell-based; conditions: Homo sapiens, 72 hours
Method: as §1, §2, §3, §4

[2] = Microsomal stability assay, human liver microsomes; format: in vitro ADME; conditions: pooled human liver microsomes, 0.5 mg/mL protein
Method: (§5) Test results from this assay were used to determine the metabolic liabilities of test compounds and allow focus on the improvement of drug candidates through structure-activity relationships. Pooled mouse/rat/human liver microsomes were used for this assay
(§6) In vitro mouse (CD-1, BioIVT)/rat (SD, RILD)/human (Corning) liver microsomal suspensions at 0.5 mg/mL protein and 1.3 mM NADPH, 3.3 mM MgCl2 were pre incubated at 37° C. for 3 mins prior to addition of 0.1 mM test compound solution to give a final incubation concentration of 1 μM. Samples were incubated for 0, 15, 30, 60 minutes at 37° C. on a shaker (the positive control substance was cultured for 0 or 60 minutes). At the end of each incubation time both incubated and control samples were quenched with ice-cold stop solution containing internal standard. All samples were mixed by a plate shaker at 800 rpm for 5 minutes, then centrifuged at 4100 rpm for 15 minutes at 4° C. to precipitate protein. Supernatant was transferred to another 96-well plate, dilution solution was added to each supernatant well, and then each bioanalysis plate was sealed. The samples were mixed by plate shaker at 800 rpm for 5 minutes and then centrifuged at 4° C., 4100 rpm for 5 minutes. All samples were stored at 4° C. before LC-MS/MS analysis.
(§7) The peak area ratio was converted to the remaining percentages (% Remaining) using the following formula: […]
(§8) where % Remaining is the compound ratio (compound peak area/internal standard peak area) as a percentage of the 0 minute time point.
(§9) The ln remaining percent of test articles were plotted against time and the gradient of the line determined; the gradient was converted to elimination rate constant by using the following formula:
(§10) Elimination rate constant(ke)=−gradient
(§11) Half time (T1/2) was determined using following formula: […]
(§12) Hepatic intrinsic clearance (CLint(liver)) was determined by using the following formulas: […]
(§13) The Intrinsic clearance of selected compounds is depicted in Table 6.

[3] = Microsomal stability assay, rat liver microsomes; format: in vitro ADME; conditions: SD, pooled rat liver microsomes, 0.5 mg/mL protein
Method: as §5, §6, §7, §8, §9, §10, §11, §12, §13

[4] = Microsomal stability assay, mouse liver microsomes; format: in vitro ADME; conditions: CD-1, pooled mouse liver microsomes, 0.5 mg/mL protein
Method: as §5, §6, §7, §8, §9, §10, §11, §12, §13

Sequence of His-tagged Human KRAS^G12D (P01116-2 other isoform, or with tags, fused parts or gaps G12D): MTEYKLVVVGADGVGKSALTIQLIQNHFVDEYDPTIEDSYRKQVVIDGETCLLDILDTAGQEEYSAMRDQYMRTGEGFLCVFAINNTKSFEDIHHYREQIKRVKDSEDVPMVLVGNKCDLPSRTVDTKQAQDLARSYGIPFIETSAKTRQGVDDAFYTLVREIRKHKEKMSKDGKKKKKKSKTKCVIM

Row | Compound | IC50 [1] | also measured
1 | CCc1c(F)ccc2cc(O)cc(-c3ncc4c(N5CCC[C@H]5C(C)(C)O)nc(OC[C@@]56CCCN5C[C@H](F)C6)nc4c3F)c12 [Compound 45] | > 1000 nM | –
2 | CCc1c(F)ccc2cc(O)cc(-c3ncc4c(N5C[C@H]6C[C@@H]5C(=O)N6)nc(OC[C@@]56CCCN5C[C@H](F)C6)nc4c3F)c12 [Compound 46] | > 1000 nM | –
3 | CCc1c(F)ccc2cc(O)cc(-c3ncc4c(OC[C@@]56CCCN5C[C@H](F)C6)nc(OC[C@@]56CCCN5C[C@H](F)C6)nc4c3F)c12 [Compound 47] | > 1000 nM | –
4 | CCc1c(F)ccc2cc(O)cc(-c3ncc4c(N5CC[C@H](CO)C5)nc(OC[C@@]56CCCN5C[C@H](F)C6)nc4c3F)c12 [Compound 48] | > 1000 nM | –
5 | CCc1c(F)ccc2cc(O)cc(-c3ncc4c(N5CCC(C(C)=O)CC5)nc(OC[C@@]56CCCN5C[C@H](F)C6)nc4c3F)c12 [Compound 49] | > 1000 nM | –
6 | CCc1c(F)ccc2cc(O)cc(-c3ncc4c(N5CCCC6(COC6)C5)nc(OC[C@@]56CCCN5C[C@H](F)C6)nc4c3F)c12 [Compound 50] | 71 nM | –
7 | CCc1c(F)ccc2cc(O)cc(-c3ncc4c(N5CCC6CC6(O)C5)nc(OC[C@@]56CCCN5C[C@H](F)C6)nc4c3F)c12 (stereo partly drawn) [Compound 52] | > 1000 nM | –
8 | CCc1c(F)ccc2cc(O)cc(-c3ncc4c(N5CCC6(CC5)COC6)nc(OC[C@@]56CCCN5C[C@H](F)C6)nc4c3F)c12 [Compound 53] | > 1000 nM | –
9 | CCc1c(F)ccc2cc(O)cc(-c3ncc4c(N5CC6(COC6)C5)nc(OC[C@@]56CCCN5C[C@H](F)C6)nc4c3F)c12 [Compound 54] | > 1000 nM | –
10 | CCc1c(F)ccc2cc(O)cc(-c3ncc4c(N5C[C@H](N)C[C@H]5CO)nc(OC[C@@]56CCCN5C[C@H](F)C6)nc4c3F)c12 [Compound 55] | > 1000 nM | –
11 | CCc1c(F)ccc2cc(O)cc(-c3ncc4c(N5CCC(C)(CO)C5)nc(OC[C@@]56CCCN5C[C@H](F)C6)nc4c3F)c12 (stereo partly drawn) [Compound 56] | > 1000 nM | –
12 | CCc1c(F)ccc2cc(O)cc(-c3ncc4c(N5[C@H](CO)C[C@H]6C[C@H]65)nc(OC[C@@]56CCCN5C[C@H](F)C6)nc4c3F)c12 [Compound 57] | 510 nM | –
13 | CCc1c(F)ccc2cc(O)cc(-c3ncc4c(N5CCC6(CCCC6=O)CC5)nc(OC[C@@]56CCCN5C[C@H](F)C6)nc4c3F)c12 [Compound 58] | > 1000 nM | –
14 | CCc1c(F)ccc2cc(O)cc(-c3ncc4c(N5CCC6(CCC6=O)CC5)nc(OC[C@@]56CCCN5C[C@H](F)C6)nc4c3F)c12 [Compound 59] | > 1000 nM | –
15 | CCc1c(F)ccc2cc(O)cc(-c3ncc4c(N5CCC6(CCO6)CC5)nc(OC[C@@]56CCCN5C[C@H](F)C6)nc4c3F)c12 [Compound 60] | > 1000 nM | –
16 | CCc1c(F)ccc2cc(O)cc(-c3ncc4c(N5CCC6(COC6)C5)nc(OC[C@@]56CCCN5C[C@H](F)C6)nc4c3F)c12 [Compound 61] | > 1000 nM | –
17 | CCc1c(F)ccc2cc(O)cc(-c3ncc4c(N5CCC6(CCO6)C5)nc(OC[C@@]56CCCN5C[C@H](F)C6)nc4c3F)c12 (stereo partly drawn) [Compound 62] | > 1000 nM | –
18 | Nc1cc(Cl)c(C(F)(F)F)c(-c2ncc3c(N4CCCC5(COC5)C4)nc(OC[C@@]45CCCN4C[C@H](F)C5)nc3c2F)c1 [Compound 63] | > 1000 nM | –
19 | CCc1c(F)ccc2cc(O)cc(-c3ncc4c(N5CCCC6(CCOC6)C5)nc(OC[C@@]56CCCN5C[C@H](F)C6)nc4c3F)c12 (stereo partly drawn) [Compound 64] | > 1000 nM | –
20 | CCc1c(F)ccc2cc(O)cc(-c3ncc4c(N5CCC[C@@]6(CCO6)C5)nc(OC[C@@]56CCCN5C[C@H](F)C6)nc4c3F)c12 [Compound 67] | – | CLint scaled at 1 μM [2]: 83.5 mL/min/kg; CLint scaled at 1 μM [3]: 288 mL/min/kg; CLint scaled at 1 μM [4]: 1280 mL/min/kg
21 | CCc1c(F)ccc2cc(O)cc(-c3ccc4c(N5CCCC6(CCO6)C5)nc(OC[C@@]56CCCN5C[C@H](F)C6)nc4c3F)c12 (stereo partly drawn) [Compound 70] | 67.4 nM | –
22 | CCc1c(F)ccc2cc(O)cc(-c3c(Cl)cc4c(N5CCCC6(CCO6)C5)nc(OC[C@@]56CCCN5C[C@H](F)C6)nc4c3F)c12 (stereo partly drawn) [Compound 92] | 416 nM | –
23 | CCc1c(F)ccc2cc(O)cc(-c3c(F)cc4c(N5CCCC6(CCO6)C5)nc(OC[C@@]56CCCN5C[C@H](F)C6)nc4c3F)c12 (stereo partly drawn) [Compound 96] | 128 nM | –
24 | CCc1c(F)ccc2cc(O)cc(-c3ncc4c(N5CC6(CCC6O)C5)nc(OC[C@@]56CCCN5C[C@H](F)C6)nc4c3F)c12 (stereo partly drawn) [Compound 110] | > 1000 nM | –
25 | CCc1c(F)ccc2cc(O)cc(-c3ncc4c(N5CC6(CCC6=O)C5)nc(OC[C@@]56CCCN5C[C@H](F)C6)nc4c3F)c12 [Compound 112] | > 1000 nM | –
26 | CCc1c(F)ccc2cc(O)cc(-c3ncc4c(N5CCCC6(C5)OCCO6)nc(OC[C@@]56CCCN5C[C@H](F)C6)nc4c3F)c12 [Compound 117] | 373 nM | –

The next lines start with results.

Row | IC50 [1] | Compound | also measured
27 | 4.5 nM | CCc1c(F)ccc2cc(O)cc(-c3ncc4c(N5CCC[C@]6(CCO6)C5)nc(OCC5(CN6CCC7(CC6)COC7)CC5)nc4c3F)c12 [Compound 18a] | IC50 (NCI-H358): 23 nM; IC50 (GP2D): 1.9 nM
28 | 16.1 nM | CCc1c(F)ccc2cc(O)cc(-c3ncc4c(N5CCC[C@]6(CCO6)C5)nc(OCC5(CN6CCC7(CC6)CC(N6CCC(c8ccc9cnn(C)c9c8)CC6)C7)CC5)nc4c3F)c12 [Compound 19a] | IC50 (NCI-H358): 15.2 nM; IC50 (GP2D): 14.1 nM
29 | 4.7 nM | CCc1c(F)ccc2cc(O)cc(-c3ncc4c(N5CCC[C@]6(CCO6)C5)nc(OCC5(CN6CCC7(CC6)CC(N6CCOCC6)C7)CC5)nc4c3F)c12 [Compound 20a] | IC50 (NCI-H358): 125 nM; IC50 (GP2D): 4.7 nM
30 | 6.8 nM | CCc1c(F)ccc2cc(O)cc(-c3ncc4c(N5CCC[C@]6(CCO6)C5)nc(OCC5(CN6CCC7(CC6)CC(N6CCCCC6)C7)CC5)nc4c3F)c12 [Compound 21a] | IC50 (NCI-H358): 92.2 nM; IC50 (GP2D): 16.3 nM
31 | 10.3 nM | CCc1c(F)ccc2cc(O)cc(-c3ncc4c(N5CCC[C@]6(CCO6)C5)nc(OCC5(CN6CCC(C(=O)O)CC6)CC5)nc4c3F)c12 [Compound 33a] | IC50 (NCI-H358): > 10000 nM; IC50 (GP2D): 421 nM
32 | > 1000 nM | CCc1c(F)ccc2cc(O)cc(-c3ncc4c(N5CCCCC(OC)C5)nc(OCC5(CN(C)C)CC5)nc4c3F)c12 (stereo not drawn) [Compound 45a] | –
33 | 684 nM | CCc1c(F)ccc2cc(O)cc(-c3ncc4c(N5CCCCC(O)C5)nc(OCC5(CN(C)C)CC5)nc4c3F)c12 (stereo not drawn) [Compound 46a] | –
34 | > 1000 nM | N#Cc1c(N)sc2c(F)ccc(-c3c(Cl)cc4c(N5CCC[C@]6(CCO6)C5)nc(OCC5(CN6CCCCC6)CC5)nc4c3F)c12 [Compound 48a] | –
35 | 4.05 nM | CCc1c(F)ccc2cc(O)cc(-c3ncc4c(N5CCC[C@]6(CCO6)C5)nc(OCC5(CN(C)CC6COC6)CC5)nc4c3F)c12 [Compound 49a] | –
36 | 6.76 nM | CCc1c(F)ccc2cc(O)cc(-c3ncc4c(N5CCC[C@]6(CCO6)C5)nc(OCC5(CN(C)CC6CCOC6)CC5)nc4c3F)c12 (stereo partly drawn) [Compound 50a] | –
